Results reported in the supplement of paper PMC10307832.

Assays:
Experiment in all cases: relative viability (nuclei count vs DMSO), 5 days (fraction); higher = more cells survive
IA-LM = system: IA-LM
Method in brief: (§1)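 A single step with final 0.05% Triton X-100, 1% formaldehyde and 1 ug/ml Hoechst fixed the cells and stained nuclei 5 days after treatment. Lung cancer cell lines in 1536-well plates had been treated by pin tool the day after seeding with one drug alone or a fixed anchor-drug dose plus five library-drug doses (not always all listed) in √10 steps, and nuclei were counted on 4× images. Relative viability is the ratio of nuclei in treated wells to nuclei in vehicle wells, taken as the median of duplicate plates.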

NCI-H1703 = system: NCI-H1703
Method in brief: as §1

A549 = system: A549
Method in brief: as §1

NCI-H1299 = system: NCI-H1299
Method in brief: as §1

EBC-1 = system: EBC-1
Method in brief: as §1

Calu-6 = system: Calu-6
Method in brief: as §1

NCI-H520 = system: NCI-H520
Method in brief: as §1

| Structure (SMILES) | relative viability (IA-LM; first compound 0.04 µM) | relative viability (IA-LM; first compound 0.1265 µM) | relative viability (IA-LM; first compound 0.4 µM) | relative viability (IA-LM; first compound 1.265 µM) | relative viability (IA-LM; first compound 4 µM) | relative viability (NCI-H1703; first compound 0.04 µM) | relative viability (NCI-H1703; first compound 0.1265 µM) | relative viability (NCI-H1703; first compound 0.4 µM) | relative viability (NCI-H1703; first compound 1.265 µM) | relative viability (NCI-H1703; first compound 4 µM) | relative viability (A549; first compound 0.04 µM) | relative viability (A549; first compound 0.1265 µM) | relative viability (A549; first compound 0.4 µM) | relative viability (A549; first compound 1.265 µM) | relative viability (A549; first compound 4 µM) | relative viability (NCI-H1299; first compound 0.04 µM) | relative viability (NCI-H1299; first compound 0.1265 µM) | relative viability (NCI-H1299; first compound 0.4 µM) | relative viability (NCI-H1299; first compound 1.265 µM) | relative viability (NCI-H1299; first compound 4 µM) | relative viability (EBC-1; first compound 0.04 µM) | relative viability (EBC-1; first compound 0.1265 µM) | relative viability (EBC-1; first compound 0.4 µM) | relative viability (EBC-1; first compound 1.265 µM) | relative viability (EBC-1; first compound 4 µM) | relative viability (Calu-6; first compound 0.04 µM) | relative viability (Calu-6; first compound 0.1265 µM) | relative viability (Calu-6; first compound 0.4 µM) | relative viability (Calu-6; first compound 1.265 µM) | relative viability (Calu-6; first compound 4 µM) | relative viability (NCI-H520; first compound 0.04 µM) | relative viability (NCI-H520; first compound 0.1265 µM) | relative viability (NCI-H520; first compound 0.4 µM) | relative viability (NCI-H520; first compound 1.265 µM) | relative viability (NCI-H520; first compound 4 µM) |
| --- | --- | --- | --- | --- | --- | --- | --- | --- | --- | --- | --- | --- | --- | --- | --- | --- | --- | --- | --- | --- | --- | --- | --- | --- | --- | --- | --- | --- | --- | --- | --- | --- | --- | --- | --- |
| COc1cc(N2CCC(C(N)=O)CC2)ccc1Nc1nc(N)c(Cl)c(Nc2ccccc2S(=O)(=O)C(C)C)n1 [HG-5-88-01] + C[C@@H](Oc1cc(-c2cnn(C3CCNCC3)c2)cnc1N)c1c(Cl)ccc(F)c1Cl [Crizotinib] (partner 1 µM) | 0.907 | 0.953 | 0.773 | 0.632 | 0.758 | 0.581 | 0.523 | 0.54 | 0.327 | 0.175 | 0.735 | 0.763 | 0.699 | 0.387 | 0.0941 | 0.992 | 0.981 | 0.982 | 0.976 | 0.881 | 0.183 | 0.187 | 0.207 | 0.171 | 0.142 | 0.767 | 0.81 | 0.833 | 0.616 | 0.304 | 0.907 | 0.704 | 0.711 | 0.762 | 0.663 |
| COc1cc(N2CCC(C(N)=O)CC2)ccc1Nc1nc(N)c(Cl)c(Nc2ccccc2S(=O)(=O)C(C)C)n1 [HG-5-88-01] + C[C@]1(O)C[C@@H](c2nc(-c3ccc4ccc(-c5ccccc5)nc4c3)c3c(N)nccn32)C1 [Linsitinib] (partner 1 µM) | 0.602 | 0.383 | 0.488 | 0.314 | 0.542 | 0.689 | 0.648 |  | 0.486 | 1.62 | 0.59 | 0.771 | 0.634 | 0.432 | 0.796 | 0.999 | 0.97 | 0.945 | 0.97 | 1.1 | 0.892 | 0.373 | 0.924 | 0.847 | 0.927 | 0.938 | 0.837 | 0.95 | 0.929 | 1.02 | 0.926 | 0.832 | 0.689 | 1.18 | 1.14 |
| COc1cc(N2CCC(C(N)=O)CC2)ccc1Nc1nc(N)c(Cl)c(Nc2ccccc2S(=O)(=O)C(C)C)n1 [HG-5-88-01] + Cc1nc(NC(=O)N2CCC[C@H]2C(N)=O)sc1-c1ccnc(C(C)(C)C(F)(F)F)c1 [Alpelisib] (partner 2 µM) | 0.722 | 1 | 0.627 | 0.447 | 0.503 | 0.265 | 0.317 | 0.38 | 0.303 | 0.399 | 0.925 | 0.715 | 0.698 | 0.474 | 0.527 | 1.04 | 1.09 | 0.972 | 1.05 | 1.12 | 0.876 | 0.98 | 0.795 | 0.768 | 0.86 | 1.02 | 1.01 | 0.908 | 0.856 | 0.885 | 0.85 | 0.94 | 0.884 | 1.01 | 1.03 |
